From PubChem BioAssay (NCI)
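Interpolation was linear, between the two tested concentrations surrounding the appropriate level; five concentrations were tested over 48 hours in 96-well plates. At the TGI there is no net growth.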

How the values were obtained:
Assay in all cases: NCI anticancer screen, dose series, 48 h
NCI-H23 lung = test system: NCI-H23 lung
UACC-62 melanoma = test system: UACC-62 melanoma
SK-MEL-5 melanoma = test system: SK-MEL-5 melanoma
IGROV1 ovarian = test system: IGROV1 ovarian
HL-60(TB) leukemia = test system: HL-60(TB) leukemia
HCT-15 colon = test system: HCT-15 colon
HOP-62 NSCLC = test system: HOP-62 NSCLC
MALME-3M melanoma = test system: MALME-3M melanoma
HCT-116 colon = test system: HCT-116 colon
T-47D breast = test system: T-47D breast
SNB-75 CNS = test system: SNB-75 CNS
MDA-MB-231 breast = test system: MDA-MB-231 breast
SK-OV-3 ovarian = test system: SK-OV-3 ovarian
M14 melanoma = test system: M14 melanoma

SMILES	TGI (NCI-H23 lung) [µM]	TGI (UACC-62 melanoma) [µM]	TGI (SK-MEL-5 melanoma) [µM]	TGI (IGROV1 ovarian) [µM]	TGI (HL-60(TB) leukemia) [µM]	TGI (HCT-15 colon) [µM]	TGI (HOP-62 NSCLC) [µM]	TGI (MALME-3M melanoma) [µM]	TGI (HCT-116 colon) [µM]	TGI (T-47D breast) [µM]	TGI (SNB-75 CNS) [µM]	TGI (MDA-MB-231 breast) [µM]	TGI (SK-OV-3 ovarian) [µM]	TGI (M14 melanoma) [µM]
COc1cc(CCCOC(=O)/C=C/c2ccc(O)c(O)c2)cc(O)c1O	> 100	85.1	> 100	> 100	84.1	> 100	> 100	> 100	34.9	74.6	> 100	91.7	> 100	> 100
Cc1cccc2c1Oc1ccccc1C2NC(=O)c1ccc([N+](=O)[O-])cc1 (stereo not given)	> 100	> 100	> 100	> 100	> 100	> 100	> 100	> 100	> 100	> 100		> 100		> 100
CC1(C)N=C(C(N)=O)c2ncn(-c3ccccc3)c2N1	> 100	> 100	> 100	> 100	> 100	> 100	> 100	> 100	> 100	> 100	> 100	> 100	> 100	> 100
O=C1CN2Cc3cc(N4CCOCC4)ccc3N=C2N1	> 100	> 100	> 100	> 100	> 100	> 100	> 100	> 100	> 100	> 100	> 100	> 100	> 100	> 100
O=C1/C(=C\c2cccc(Oc3ccccc3)c2)S(=O)(=O)C(c2ccccc2)N1c1ccc(Cl)cc1 (stereo not given)	> 100	57	30.5	33.2	32.7	32.8	> 100	33.6	26.8	29.9	> 100	34.7	> 100	26.9
O=c1cc(N2CCOCC2)[nH]c(=O)n1-c1cccc(C(F)(F)F)c1	> 100	> 100	> 100	> 100	> 100	> 100	> 100	> 100	> 100	> 100	> 100	57	> 100	> 100
CCc1n[nH]c(=O)n1/N=C/c1ccccc1Cl	> 100	> 100	> 100	> 100	> 100	> 100	> 100	> 100	> 100	> 100		> 100	> 100	> 100
O=C(CC(=O)N1N=C(N2CCCCC2)CC1c1ccccc1)Nc1ccc(Cl)cc1 (stereo not given)	> 100	> 100	> 100	> 100	> 100	> 100	> 100	> 100	> 100	> 100	> 100	> 100		> 100
O=C1CCC[C@]2(CCC[C@@H](O)C2)N1			> 100	> 100	> 100	> 100	> 100	> 100	> 100	> 100	> 100	> 100	> 100	> 100
O=c1[nH]c(Nc2cccc(C(F)(F)F)c2)nc2nc[nH]c12			> 100	> 100	> 100	> 100	> 100	> 100	> 100	> 100	> 100	> 100	> 100	> 100
CC1CC[C@@]2(OC1)OC1C[C@H]3[C@@H]4C/C(=N\N(C)C)[C@@]5(O)CC(O)CC[C@]5(C)[C@H]4CC[C@]3(C)C1[C@@H]2C (stereo not given in full)	> 100	> 100	> 100	> 100	54.3	> 100	> 100	83.7	76.1	> 100		> 100	> 100	> 100
N#Cc1c(-c2ccc([N+](=O)[O-])cc2)cc(-c2ccc(Nc3ccnc4cc(C(F)(F)F)ccc34)cc2)nc1N	> 62.3	> 100	> 83.3	29		23.6	51.3	> 62.8	27.5	28.8	49.8	41.7	> 71.6	36.4
CN(C)c1ccc(/C=C(\C#N)C(N)=C(C#N)C#N)cc1	> 100	> 100	> 100	> 100	> 100	> 100	> 100	> 100	> 100	> 100		> 100	> 100	> 100
Cc1ccc(S(=O)(=O)NN=C2CCCCCCCCCCC2)cc1	> 100	> 100	> 100	> 100	> 100	> 100	> 100	> 100	> 100	> 100		> 100	> 100	> 100
COC(=O)C1(Cc2ccc3c(c2)CCC3)Cc2ccc3c(c2C1O)CCC3 (stereo not given)		32.9	22.1		> 100		28	27.3	28.1	33	> 100	29.4	51.8	
COc1ccc2nc3ccc(OC)cc3c(S(=O)(=O)Cc3ccc([N+](=O)[O-])cc3)c2c1	> 100	> 100		> 100	> 100	> 100	> 100	> 100	> 100	> 100	> 100	> 100	> 100	> 100
O=C(/C=C/c1ccc(Cl)cc1)Oc1ccc(/C=C2\CCCCC2=O)cc1	> 100	> 100	> 100	> 100	> 100	> 100	> 100	> 100	> 100	> 100	> 100	> 100		> 100
